Laboratory results from patent US7683182B2, “Crystal forms of 2-(3-fluoro-4-hydroxyphenyl)-7-vinyl-1,3-benzoxazol-5-ol” (Wyeth LLC, priority 2005, dated 2010).

Experiments:
Format in all cases: physicochemical
[1] = Stability studies, long term (XRPD, TGA, HPLC); details: non-micronized, three months
Description: Non-micronized samples of monohydrate and anhydrate were stored at 40° C./75% RH for three months. The monohydrate was also stored at 40° C. without humidity control. During the three months, the samples were checked after two weeks, one month, two months, and three months.

[2] = Stability, separate study of micronized and non-micronized anhydrate (XRPD)
[3] = Dynamic vapor sorption (DVS), hygroscopicity; details: for DVS gain: 0-90% RH; for Hygroscopicity (from DVS weight gain): DVS data of Table 2
Excerpt: Dynamic Vapor Sorption (Allentown, Pa.) was used to measure the hygroscopicity of the anhydrate and monohydrate of the invention (see FIGS. 6 and 7). The step conditions were three hours each at 0%, 30%, 52.5%, 75% and 90% RH, two full cycles.

[4] = Stability studies, short term (XRPD)
[5] = Water solubility of the crystal forms; details: Table 2 data
[6] = Stability studies, medium term (XRPD and TGA)
Description: Samples of monohydrate were stored at room temperature, 56° C., and 70° C. for one week. At room temperature, humidity was maintained at 0% RH. Humidity was not controlled for the higher temperatures.
The samples were analyzed by XRPD and TGA.

[7] = 40° C. without humidity control

| SMILES | Chemical stability (HPLC) ([1]; 40° C./75% RH) | Transformation of crystal form (XRPD and TGA) ([1]; 40° C./75% RH) | Transformation to the monohydrate (XRPD) ([2]; micronized, 25° C./60% RH, three months) | Transformation to the monohydrate (XRPD) ([2]; micronized, 40° C./75% RH, one month) | Transformation to the monohydrate (XRPD) ([2]; non-micronized, 40° C./75% RH) | DVS gain [3] | Hygroscopicity (from DVS weight gain) [3] | Chemical stability (HPLC) [1, 7] | Transformation of crystal form (XRPD and TGA) [1, 7] | Stability of crystal form (XRPD) ([4]; 70° C. for one hour) | Stability of crystal form (XRPD) ([4]; 90° C. after one half hour) | Stability of crystal form (XRPD) ([4]; 90° C. after one hour) | Water solubility compared between the two forms [5] | Dehydration on storage (XRPD and TGA) ([6]; 56° C., humidity not controlled, one week) | Dehydration on storage (XRPD and TGA) ([6]; 70° C., humidity not controlled, after 1 day) | Dehydration on storage (XRPD and TGA) ([6]; 70° C., humidity not controlled, after 4 days) | Dehydration on storage (XRPD and TGA) ([6]; 70° C., humidity not controlled, after 7 days) | Dehydration on storage (XRPD and TGA) ([6]; room temperature, 0% RH, one week) |
| --- | --- | --- | --- | --- | --- | --- | --- | --- | --- | --- | --- | --- | --- | --- | --- | --- | --- | --- |
| C=Cc1cc(O)cc2nc(-c3ccc(O)c(F)c3)oc12 [Anhydrate, 2-(3-fluoro-4-hydroxyphenyl)-7-vinyl-1,3-benzoxazol-5-ol] | chemically stable | did not transform | did not transform to the monohydrate | partially transform to the monohydrate | did not show any obvious transformation | 0.2% gain (0-90% RH) | largely non-hygroscopic | – | – | – | – | – | – | – | – | – | – | – |
| C=Cc1cc(O)cc2nc(-c3ccc(O)c(F)c3)oc12 [Monohydrate, 2-(3-fluoro-4-hydroxyphenyl)-7-vinyl-1,3-benzoxazol-5-ol] | chemically stable | did not transform | – | – | – | 0.1% gain (0-90% RH) | largely non-hygroscopic | chemically stable | did not transform | stable | partially dehydrated | completely dehydrated | significantly lower solubility than the anhydrate | no obvious dehydration | no obvious hydration | partially dehydrated | mostly dehydrated | no obvious dehydration |
